Measured values from ChEMBL document CHEMBL5608234, “Heat Shock Protein 90 Interactome-Mediated Proteolysis Targeting Chimera (HIM-PROTAC) Degrading Glutathione Peroxidase 4 to Trigger Ferroptosis” (J Med Chem, 2024).
Activity calls are given as the source filed them. The rule behind the calls is not given here.

Assays:
[1] = system: Mus musculus; experiment: Downregulation of GPX4 protein level in BALB/c mouse tumor xenografted with human HT-1080 cells at 50 to 100 mg/kg, ip measured upto 36 hrs; assay type: functional, organism-based; conditions: dose 50-100 mg/kg
[2] = system: HT-1080; experiment: Induction of ferroptosis in human HT-1080 cells assessed as increase in lipid peroxidation by measuring fluorescence intensity at 1 uM incubated for 12 hrs in presence of Fer-1 by C11-BODIPSY 581/591 staining based flow cytometry analysis; assay type: functional, cell-based
[3] = system: HT-1080; experiment: Induction of ferroptosis in human HT-1080 cells assessed as reduction in mitochondrial crests at 1 uM incubated for 24 hrs by TEM analysis; assay type: functional, cell-based
[4] = system: HT-1080; experiment: Induction of ferroptosis in human HT-1080 cells assessed as increase in lipid peroxidation by measuring fluorescence intensity incubated for 12 hrs by C11-BODIPSY 581/591 staining based flow cytometry analysis; assay type: functional, cell-based; conditions: dose 0.1-3 µM
[5] = system: HT-1080; experiment: Cytotoxicity against human HT-1080 cells incubated for 48 hrs in presence of Fer-1 by CCK-8 assay; assay type: functional, cell-based; conditions: HT-1080, 48 h
[6] = Toxicity in BALB/c mouse xenografted with human HT-1080 cells assessed as change in liver morphology at 25 to 50 mg/kg, ip administered once daily by H and E staining based assay; assay type: organism-based; conditions: in vivo, dose 25-50 mg/kg
[7] = system: HT-1080; experiment: Induction of ferroptosis in human HT-1080 cells assessed as mitochondrial swelling at 1 uM incubated for 24 hrs by TEM analysis; assay type: functional, cell-based
[8] = system: HT-1080; experiment: Induction of ferroptosis in human HT-1080 cells assessed as appearance of autophagosome-like structures at 1 uM incubated for 24 hrs by TEM analysis; assay type: functional, cell-based
[9] = system: B16-F10; experiment: HIM-PROTAC activity at GPX4/HSP90/E3 ligase in mouse B16-F10 cells assessed as reduction in GPX4 level at 0.1 to 3 uM incubated for 24 hrs by Western blotting analysis; assay type: cell-based; conditions: dose 0.1-3 µM
[10] = system: Mus musculus; experiment: Effect on HSP90 level in BALB/c mouse xenografted with human HT-1080 cells at 25 to 50 mg/kg, ip administered once daily by immunohistochemistry analysis; assay type: functional, organism-based; conditions: dose 25-50 mg/kg
[11] = Toxicity in BALB/c mouse xenografted with human HT-1080 cells assessed as change in lung morphology at 25 to 50 mg/kg, ip administered once daily by H and E staining based assay; assay type: organism-based; conditions: in vivo, dose 25-50 mg/kg
[12] = system: HT-1080; experiment: Cytotoxicity against human HT-1080 cells incubated for 48 hrs by CCK-8 assay; assay type: functional, cell-based; conditions: HT-1080, 48 h
[13] = system: HT-1080; experiment: Downregulation of GPX4 protein level in human HT-1080 cells at 1 uM incubated for 24 hrs by proteomics analysis; assay type: functional, cell-based
[14] = target: Heat shock protein HSP 90-alpha (Homo sapiens, UniProt P07900); experiment: Binding affinity to recombinant human HSP90alpha by SPR assay
[15] = system: HT-1080; experiment: Upregulation of GPX4 protein level in human HT-1080 cells at 1 uM incubated for 4 hrs by Western blotting analysis; assay type: functional, cell-based
[16] = Toxicity in BALB/c mouse xenografted with human HT-1080 cells assessed as animal death at 50 mg/kg, ip administered once daily measured after 10 days; assay type: organism-based; conditions: in vivo, 240 h, time 10 day
[17] = system: HT-1080; experiment: Antitumor activity against human HT-1080 cells xenografted in ip dosed BALB/c mouse assessed as tumor growth suppression administered once daily; assay type: functional, organism-based; conditions: dose 25-50 mg/kg
[18] = system: HT-1080; experiment: HIM-PROTAC activity at GPX4/HSP90/E3 ligase in HSP90-knockdown human HT-1080 cells assessed as GPX4 degradation at 0.3 to 1 uM incubated for 24 hrs by Western blotting analysis; assay type: cell-based; conditions: dose 0.3-1 µM
[19] = system: Mus musculus; experiment: Upregulation of 4-HNE protein level in BALB/c mouse tumor xenografted with human HT-1080 cells at 50 to 100 mg/kg, ip measured upto 36 hrs; assay type: functional, organism-based; conditions: dose 50-100 mg/kg
[20] = system: HT-1080; experiment: Induction of HSP90/GPX4 protein protein interaction in human HT-1080 cells assessed as ternary complex formation at 5 uM incubated for 12 hrs by co-immunoprecipitation method; assay type: cell-based; conditions: filed as activator
[21] = Half-life in ICR mouse at 25 mg/kg, ip measured upto 24 hrs by LC-MS/MS analysis; assay type: ADME, organism-based; conditions: in vivo
[22] = Cmax in ICR mouse at 25 mg/kg, ip measured upto 24 hrs by LC-MS/MS analysis; assay type: ADME, organism-based; conditions: in vivo
[23] = system: Mus musculus; experiment: Downregulation of GPX4 level in ip dosed BALB/c mouse xenografted with human HT-1080 cells administered once daily by immunohistochemistry analysis; assay type: functional, organism-based; conditions: dose 25-50 mg/kg
[24] = HIM-PROTAC activity at GPX4/HSP90/E3 ligase in human HT-1080 cells assessed as reduction in GPX4 level incubated for 24 hrs by Western blotting analysis; assay type: cell-based; conditions: HT-1080, 24 h
[25] = system: HT-1080; experiment: (§1) HIM-PROTAC activity at GPX4/HSP90/E3 ligase in human HT-1080 cells assessed as reduction in GPX4 level at 1 uM preincubated with MG132 for 2 hrs followed by compound addition and measured after 24 hrs by Western blotting analysis; assay type: cell-based
[26] = system: HT-1080; experiment: HIM-PROTAC activity at GPX4/HSP90/E3 ligase in human HT-1080 cells assessed as reduction in GPX4 level at 1 uM incubated for 12 hrs by Western blotting analysis; assay type: cell-based
[27] = system: Mus musculus; experiment: Upregulation of 4-HNE level in ip dosed BALB/c mouse xenografted with human HT-1080 cells administered once daily by immunohistochemistry analysis; assay type: functional, organism-based; conditions: dose 25-50 mg/kg
[28] = system: HT-1080; experiment: Induction of ferroptosis in human HT-1080 cells assessed as fold increase in cytotoxic IC50 incubated for 48 hrs in presence of Fer-1 by CCK-8 assay; assay type: functional
[29] = Toxicity in BALB/c mouse xenografted with human HT-1080 cells assessed as change in heart morphology at 25 to 50 mg/kg, ip administered once daily by H and E staining based assay; assay type: organism-based; conditions: in vivo, dose 25-50 mg/kg
[30] = system: HT-1080; experiment: Induction of ferroptosis in human HT-1080 cells assessed as ruptured mitochondria at 1 uM incubated for 24 hrs by TEM analysis; assay type: functional, cell-based
[31] = system: HT-1080; experiment: HIM-PROTAC activity at GPX4/HSP90/E3 ligase in human HT-1080 cells assessed as reduction in GPX4 level at 1 uM incubated for 24 hrs by Western blotting analysis; assay type: cell-based; set-up: scale not given: the % may be the effect or the level left
[32] = system: MDA-MB-231; experiment: HIM-PROTAC activity at GPX4/HSP90/E3 ligase in human MDA-MB-231 cells assessed as reduction in GPX4 level at 0.1 to 3 uM incubated for 24 hrs by Western blotting analysis; assay type: cell-based; conditions: dose 0.1-3 µM
[33] = system: HT-1080; experiment: as §1, with “2-chloro-N-(3-chloro-4-methoxyphenyl)-N-(2-oxo-2-(phenethylamino)-1-(thiophen-2-yl)ethyl)acetamide” for “MG132”; assay type: cell-based
[34] = Toxicity in BALB/c mouse xenografted with human HT-1080 cells assessed as reduction in body weight at 25 to 50 mg/kg, ip administered once daily; assay type: organism-based; conditions: in vivo, dose 25-50 mg/kg
[35] = Toxicity in BALB/c mouse xenografted with human HT-1080 cells assessed as change in kidney morphology at 25 to 50 mg/kg, ip administered once daily by H and E staining based assay; assay type: organism-based; conditions: in vivo, dose 25-50 mg/kg

Row | Structure (SMILES) | Activity [1] | Activity [2] | Activity [3] | Activity [4] | IC50 [5] [nM] | Activity [6] | Activity [7] | Activity [8] | Activity [9] | Activity [10] | Activity [11] | IC50 [12] [nM] | Activity [13] | Kd [14] [nM] | Activity [15] | Activity [16] | Activity [17] | Activity [18] | Activity [19] | Activity [20] | other results
1 | COc1c(C)cnc(Cn2cnc3c(NCCC4CCN(C(=O)Cn5cc(COc6ccc(N(C(=O)CCl)C(C(=O)NCCc7ccccc7)c7cccs7)cc6Cl)nn5)CC4)nc(N)nc32)c1C (stereo not given) | Active | inactive | Active | Dose-Dependent Effect | 35500 | Non-Toxic | Active | Active | Active | inactive | Non-Toxic | 740 | Active | 190 | Active | Non-Toxic | Dose-Dependent Effect | inactive | Active | Active | half-life [21]: 5 h; Cmax [22]: 53.1 ng/mL; Activity [23]: Dose-Dependent Effect; DC50 [24]: 80 nM; Activity [25]: inactive; Activity [26]: Active; Activity [27]: Dose-Dependent Effect; fold change (FC) [28]: 45; Activity [29]: Non-Toxic; Activity [30]: Active; Activity [31]: 100%; Activity [32]: inactive; Activity [33]: inactive; Activity [34]: Toxic; Activity [35]: Non-Toxic
2 | COc1c(C)cnc(Cn2cnc3c(NCCOCCOCCOCCn4cc(COc5ccc(N(C(=O)CCl)C(C(=O)NCCc6ccccc6)c6cccs6)cc5Cl)nn4)nc(N)nc32)c1C (stereo not given) | Active | inactive | Active | Dose-Dependent Effect | 4400 | Non-Toxic | Active | Active | Active | inactive | Non-Toxic | 1300 | Active | 2770 | Active | Non-Toxic | Dose-Dependent Effect | inactive | Active | Active | half-life [21]: 5.5 h; Cmax [22]: 139 ng/mL; Activity [23]: Dose-Dependent Effect; DC50 [24]: 180 nM; Activity [25]: inactive; Activity [26]: Active; Activity [27]: Dose-Dependent Effect; fold change (FC) [28]: 2; Activity [29]: Non-Toxic; Activity [30]: Active; Activity [31]: 100%; Activity [32]: inactive; Activity [33]: inactive; Activity [34]: Toxic; Activity [35]: Non-Toxic
